Laboratory results reported in US20080107751A1, “Antimicrobial Wax Composition for Wax Therapy” (priority 2004, published 2008).

Key:
human pathogens = assay: Growth of pathogens in molten wax composition containing triclosan; format: cell-based
Procedure: (§1) In its simplest form, the wax composition according to the present invention comprises a wax component and an antimicrobial component. The preferred wax is conventional, physio-therapy-grade paraffin wax that is solid at room temperature and has a melting point around 120° F. The preferred antimicrobial agent or component is triclosan, which is a phenolic, broad-spectrum antimicrobial that is generally regarded as safe for use on human skin, and even for ingestion by humans in small amounts. It is available from several sources, including Ciba Specialty Chemicals Corporation, 4090 Premier Drive, High Point, N.C. 27265. […] These bacteria were selected for testing as common human pathogens that are commonly found on the hands. Additionally, these pathogens also model the “survivability” of other pathogens that could be found in the melted wax.
(§2) This is the preferred concentration of the triclosan antimicrobial in the molten wax composition according to the present invention. As disclosed in connection with the below examples, this is about 0.18-0.2% by weight of the total composition.
The foregoing examples vary primarily in their fragrance and coloration. They are by way of example only and not intended to be by way of limitation. Variation of other components is regarded as within the invention. […]

[1] = test system: Salmonella (both enteritidis and typhimurium strains); assay: Growth and survival of Salmonella in molten wax composition; format: cell-based
Procedure: as §1, §2

E. Coli 0157 = assay: Growth and survival of E. Coli 0157 in molten wax composition; format: cell-based
Procedure: as §1, §2

Staphylococcus aurea = assay: Growth and survival of Staphylococcus in molten wax composition; format: cell-based, Staphylococcus aureus
Procedure: as §1, §2

Streptococcus = assay: Growth and survival of Streptococcus in molten wax composition; format: cell-based; settings: triclosan 500 μg/ml up to 1000 μg/ml in molten wax
Source text: as §2

[2] = molten wax, versus absence of triclosan
[3] = triclosan 500 μg/ml up to 1000 μg/ml in molten wax

Q: Which “concentration that inhibits the growth of both pathogens” value (human pathogens; molten wax composition, about 0.18-0.2% by weight) does the source give for Oc1cc(Cl)ccc1Oc1ccc(Cl)cc1Cl [triclosan] here?
A: 2000 µg/mL

Q: And the “concentration found to inhibit growth of pathogens in wax” value (human pathogens; wax maintained at 52.5° C. or 126.5° F., concentrations as low as)?
A: ≥ 500 µg/mL

Q: What about the “time of survivability in wax composition” value ([1]; molten wax) of the same molecule?
A: decrease

Q: What about the “growth of bacteria in wax composition” value [1, 2] of the same molecule?
A: inhibit growth

Q: And the growth and survival ([1]; triclosan 500 μg/ml up to 1000 μg/ml in molten wax, Salmonella apparently eliminated by heat alone)?
A: not

Q: And the “time of survivability in wax composition” value (E. Coli 0157; molten wax)?
A: decrease

Q: What about the “growth of bacteria in wax composition” value (E. Coli 0157; [2]) of the same molecule?
A: inhibit growth

Q: And the growth and survival (E. Coli 0157; [3])?
A: permitted growth and survival

Q: And the “time of survivability in wax composition” value (Staphylococcus aurea; molten wax)?
A: decrease

Q: And the “growth of bacteria in wax composition” value (Staphylococcus aurea; [2])?
A: inhibit growth

Q: What about the growth and survival (Staphylococcus aurea; [3]) of the same molecule?
A: permitted growth and survival

Q: And the growth and survival (Streptococcus)?
A: permitted growth and survival
